Holding throughout (type): cell-based
The target of series [1] is T1, GATA4–NKX2-5 transcriptional synergy (Mus musculus, UniProt P42582+Q08369).
T1 construct: expressed in transfected cells; host or cells: COS-1
The series is described as follows: GATA4–NKX2-5 transcriptional synergy luciferase reporter assay (3xNKE reporter, COS-1 cells). The note with it: COS-1, luciferase reporter activity relative to control. Background: A reporter such as luciferase makes a cellular process visible.

The target in series [2] is T2, GATA4 transcriptional activity (Mus musculus, UniProt Q08369).
T2 construct: expressed in transfected cells; host or cells: COS-1
As to the kind of experiment: GATA4 luciferase reporter assay (tandem GATA-site reporter, COS-1 cells).

Series [3] has as its target T3, NKX2-5 transcriptional activity (Mus musculus, UniProt P42582).
T3 construct: expressed in transfected cells; host or cells: COS-1
As to the kind of experiment: NKX2-5 luciferase reporter assay (3xNKE reporter, COS-1 cells). To be noted: COS-1, luciferase reporter activity relative to control; for activity at 3 µM: read-out: NKX.3µM; for activity at 10 µM: read-out: NKX.10µM.

In series [4] the test system is COS-1 cells. As to the kind of experiment: LDH assay (necrosis).
Series [5] concerns COS-1 cells. The series is described as follows: MTT assay (cell viability). The note with it: for MTT.1µM / MTT.3µM / MTT.10µM / MTT.30µM: cell viability. On the technique in general: Tetrazolium assays rely on reduction of a dye to a coloured formazan, in cell work by metabolically active cells.
The mark [6] stands for this setting: COS-1, luciferase reporter activity relative to control.

T1 sequence (Q08369 whole entry): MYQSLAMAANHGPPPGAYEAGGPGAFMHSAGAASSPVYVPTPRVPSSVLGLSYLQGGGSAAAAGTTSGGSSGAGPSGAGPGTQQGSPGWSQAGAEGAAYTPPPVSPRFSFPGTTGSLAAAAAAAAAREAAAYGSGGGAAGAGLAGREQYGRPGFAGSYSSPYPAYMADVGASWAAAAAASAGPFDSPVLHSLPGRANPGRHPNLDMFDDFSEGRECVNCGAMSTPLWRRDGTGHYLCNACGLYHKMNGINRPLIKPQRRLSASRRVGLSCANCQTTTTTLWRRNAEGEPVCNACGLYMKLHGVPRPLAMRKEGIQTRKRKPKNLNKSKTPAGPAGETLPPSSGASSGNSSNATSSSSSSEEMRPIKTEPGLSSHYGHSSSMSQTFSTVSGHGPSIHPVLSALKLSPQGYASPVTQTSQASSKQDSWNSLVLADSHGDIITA
T1 sequence (P42582 whole entry): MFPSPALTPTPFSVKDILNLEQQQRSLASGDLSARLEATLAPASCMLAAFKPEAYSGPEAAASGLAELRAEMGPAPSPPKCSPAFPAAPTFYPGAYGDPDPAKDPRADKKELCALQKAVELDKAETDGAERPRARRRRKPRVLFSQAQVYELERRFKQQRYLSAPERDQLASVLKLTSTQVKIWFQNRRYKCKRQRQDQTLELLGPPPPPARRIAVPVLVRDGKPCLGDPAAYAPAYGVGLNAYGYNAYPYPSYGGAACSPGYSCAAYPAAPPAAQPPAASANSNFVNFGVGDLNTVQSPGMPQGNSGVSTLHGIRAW
T2 sequence (Q08369 whole entry): as the sequence (Q08369 whole entry) above
T3 sequence (P42582 whole entry): as the sequence (P42582 whole entry) above

With `CCN(CC)c1ccc(CNc2c(-c3ccccc3)noc2C)cc1` [Compound 33, N-[4-(Diethylamino)benzyl]-5-methyl-3-phenylisoxazol-4-amine], the activity at 3 µM in series [1] was 97.5%. Further, the activity at 3 µM in series [2] (setting [6]) is 114%. The activity at 3 µM in series [3] came out at 99%. In series [4], the LDH.1µM turned out to be 2.57, the LDH.3µM is on record as 2.98, the LDH.10µM is on record as 2.01 and the LDH.30µM is reported as 0.31. Moreover, in series [5], the MTT.1µM is on record as 111.17, the MTT.3µM worked out at 102.56, the MTT.10µM came out at 104.2 and the MTT.30µM turned out to be 96.47.
As for `Cc1onc(-c2ccccc2)c1C(=O)Nc1ccc(OCc2ccccc2)cc1` [SI8], in series [1], the activity at 3 µM amounted to 86.4% and the activity at 10 µM was found to be 71.9%. The activity at 3 µM in series [2] (setting [6]) turned out to be 104%. In addition, the activity at 10 µM in series [2] (COS-1, 10 µM, luciferase reporter activity relative to control) was found to be 83.8%. In series [3], the activity at 3 µM amounted to 84.9% and the activity at 10 µM came to 72.2%. In series [4], this molecule gave an LDH.1µM of -0.14, an LDH.3µM of 2.05, an LDH.10µM of -0.31 and an LDH.30µM of 1.97. In addition, in series [5], the MTT.1µM turned out to be 105.45, the MTT.3µM is recorded as 102.65, the MTT.10µM is 100.93 and the MTT.30µM is listed as 59.22.
As for `CCN(CC)c1ccc(NC(=O)c2c(-c3ccccc3)nnn2CCc2ccccc2)cc1` [Compound 71], in series [1], the activity at 3 µM was found to be 75.2% and the activity at 10 µM came to 33%. Moreover, the activity at 3 µM in series [2] (setting [6]) was determined as 72.5%. For the same molecule, in series [3], the activity at 3 µM is 76% and the activity at 10 µM stood at 33.6%. In series [4], this molecule showed an LDH.1µM of 0.03, an LDH.3µM of -0.62, an LDH.10µM of -0.76 and an LDH.30µM of 1.31. For the same molecule, in series [5], the MTT.1µM is on record as 103.27, the MTT.3µM amounted to 98.93, the MTT.10µM is listed as 94.48 and the MTT.30µM is reported as 80.74.
Turning to `CCN(c1ccc(NC(=O)c2c(-c3ccccc3)noc2C)cc1)C(C)C` [Compound 4i, N-[4-[Ethyl(isopropyl)amino]phenyl]-5-methyl-3-phenylisoxazole-4-carboxamide], in series [1], the activity at 3 µM came to 64.9%. For the same molecule, the activity at 3 µM in series [2] (setting [6]) is 84.1%. Further, the activity at 3 µM in series [3] turned out to be 55.3%. Also, in series [4], the LDH.1µM stood at 0.82, the LDH.3µM is 0.18, the LDH.10µM was -0.77 and the LDH.30µM is -0.17. In series [5], the MTT.1µM came out at 100.09, the MTT.3µM is 98.4, the MTT.10µM stood at 87.88 and the MTT.30µM turned out to be 85.16.
For `Cc1onc(-c2ccccc2)c1C(=O)Nc1ccc2oc(-c3ccccc3)cc(=O)c2c1` [Compound 4g], the activity at 3 µM in series [1] is 62.6%. For the same molecule, the “GATA4 (% of control) Mean ± SD” value in series [2] (10 μM, COS-1 cells, 24 h) was 66 % of control. In series [2] (setting [6]), the activity at 3 µM worked out at 40.2%. Further, in series [3], the activity at 3 µM was determined as 85.2%. In series [4], this molecule showed an LDH.1µM of -0.29, an LDH.3µM of 0.38, an LDH.10µM of -0.94 and an LDH.30µM of -0.1. In series [5], this molecule came in with an MTT.1µM of 109.72, an MTT.3µM of 101.99, an MTT.10µM of 88.31 and an MTT.30µM of 82.48.
As for `CC(=O)COC(=O)c1ccc(OCc2c(-c3ccccc3)noc2C)cc1` [Compound 35d], in series [1], the activity at 3 µM came out at 51.3%. Besides, the activity at 3 µM in series [2] (setting [6]) is 65.3%. Besides, the activity at 3 µM in series [3] is 56.8%. In series [4], this molecule showed an LDH.1µM of -0.61, an LDH.3µM of -0.5, an LDH.10µM of -0.15 and an LDH.30µM of -0.05. In addition, in series [5], the MTT.1µM is reported as 81.99, the MTT.3µM came to 73.26, the MTT.10µM was found to be 64.91 and the MTT.30µM was 61.12. For the same molecule, in series [5] (24-h exposure, classified at 10 μM), the “toxicity class in the MTT assay” value is “most toxic”.

Source of the values: publication PMC7076710, “Synthesis, Identification, and Structure–Activity Relationship Analysis of GATA4 and NKX2-5 Protein–Protein Interaction Modulators” (Journal of Medicinal Chemistry, 2019).
